According to patent US20240091267A1, “PRE-TREATMENT OF MSC WITH PPARB/DELTA AGONIST FOR TREATMENT OF ISCHEMIA-REPERFUSION INJURY” (Universite de Montpellier, priority 2020, published 2024):

Assays:
[1] = system: MSC; experiment: RT-qPCR relative gene expression in untreated or preconditioned MSC; assay type: cell-based, mouse; settings: for hgf transcripts / vegf-α transcripts / pdgf transcripts: then H2O2 4 h, vs untreated MSC/H2O2; for bcl2 gene expression level: then H2O2, vs H2O2-treated MSC
Method: FIG. 8: (A) 48 hours after the seeding step in complete medium, MSC were subjected to H2O2-induced oxidative stress during 4 hours in minimal medium with serum deprivation. Pharmacological preconditioning of MSC using PPARβ/δ agonist or antagonist was performed 24 hours before oxidative stress exposure. At the end of the protocol, relative gene expression was analyzed measuring transcript amounts by RT-qPCR. mRNA expression levels in untreated or preconditioned MSC exposed to an oxidative stress were assessed by RT-qPCR for (B) vegf: data (mean±SEM) were compared using ANOVA and the Tukey's post hoc for multiple comparisons (normality test passed). […] P values were ns versus H2O2, n=7 for control n=8, GW0742 0.1 μM n=7, GW0742 1 μM n=9, GSK0660 0.1 μM n=6 and GSK0660 1 μM n=9; and (D) for pdgf: data (mean±SEM) were compared using ANOVA and the Tukey's post hoc for multiple comparisons (normality test passed). […] For statistical analysis comparisons were made to the untreated MSC/H2O2 group.
MSCs were pre-incubated for 24 hours with either PPARβ/δ antagonists GSK3787 (0.1 and 1 μM), PPARβ/δ inverse agonist GSK0660 (0.1 and 1 μM) or PPARβ/δ agonist GW0742 (0.1, 1 and 5 μM) before to be washed with PBS and used in co-cultures experiments or injected in the myocardium. When indicated, MSCs were labeled with the fluorescent cell-tracer CM-Dil (Molecular Probes). MSC were collected and suspended in 5 mL PBS containing CM-Dil (10^7 cells/10 μg) prior to be incubated at 37° C. for 5 minutes followed by 15 minutes at 4° C., in the dark. Labeled MSCs were washed 2 times in PBS, resuspended in PBS and maintained at 4° C. prior to be injected in the myocardium.
Isolation of total RNA for each sample was performed using the RNeasy Mini Kit (Qiagen, Courtaboeuf). The quantity and quality of the RNA extracted were defined by using a NanoDrop ND-1000 spectrophotometer (NanoDrop ND, Thermo Fisher Scientific). Then, using the SensiFAST cDNA synthesis kit (Bioline), cDNA was synthesized by reverse transcribing 500 ng RNA into cDNA. Using the SensiFAST™ SYBR (Bioline) and a LightCycler® 480 Detection system Quantitative following manufacturer's recommendations, PCR were performed. Primers specific for angpl4, pdk4, bcl2, hgf, pdgf, nrf2 were designed using the Primer3 software. Data were normalized to the housekeeping gene ribosomal protein S9 (RPS9) and the values were expressed as relative mRNA level of specific gene expression as calculated using the 2^−ΔCt method.

[2] = system: MSC; experiment: Specific DNA fragmentation (Cell Death ELISA) in MSC exposed to H2O2-induced oxidative stress; assay type: cell-based, mouse; settings: then 250 μM H2O2 4 h, vs naive MSC/H2O2
Method: FIG. 6: Increased resistance to oxidative stress and survival of PPARβ/δ-primed MSC. (A) 48 hours after the seeding step in complete medium, MSC were subjected to H2O2-induced oxidative stress during 4 hours in minimal medium with serum deprivation. Pharmacological preconditioning of MSC using PPARβ/δ agonist or antagonist was performed 24 hours before oxidative stress exposure. At the end of the protocol, cell death or relative gene expression was analyzed measuring specific DNA fragmentation by ELISA and transcript amounts by RT-qPCR. (B): Scatter plot and bars were presented for specific DNA fragmentation quantification measured in MSC treated with H2O2 at various concentrations (0, 100, 150, 250, 500 and 750 μM) for 4 h in minimal medium. Data (normalized by the control value obtained with untreated MSC) were plotted as scatter dot blots and mean±SD for each group of treatment and compared using Kruskal-Wallis (Dunn's post hoc test) and were noted **** for p<0.0001 (250 group, n=11 independent cultures vs 0 group, n=13), ** for p=0.0013 (100 group, n=10 vs 0 group, n=13), ** for p=0.0015 (350 group, n=9 vs 0 group, n=13), **for p=0.0015 (500 group, n=9 vs 0 group, n=13) and * for p=0.0332 (750 group, n=3 vs 0 group, n=13). (C): Scatter plots and bars were presented for specific DNA fragmentation quantification measured in MSC treated with 250 μM of H2O2 pretreated with GW0742 or GSK0660 at 0.1 and 1 μM 24 hours before H2O2 exposure. […]
DNA fragmentation was quantified in vitro on cell lysates with an enzyme-linked immunosorbent assay kit (Cell Death ELISA; Roche Diagnostics) designed to measure of histone-complexed DNA fragments (mono- and oligonucleosomes) out of the cytoplasm of cells after the induction of apoptosis.
To do this, MSC were submitted to an IR-simulated stress in vitro using various concentrations of H2O2 (100, 250, 350, 500 and 750 μM; see the protocol on FIG. 6A) for 4 hours. Apoptosis quantification was assessed by the mean of specific DNA fragmentation measurement for the different groups of treatment. […]

[3] = MSC pretreated 24 h with 0.1 μM
[4] = pretreatment of cultured MSC (data not shown)

Row | Compound | hgf transcripts [1, 3] | vegf-α transcripts [1, 3] | bcl2 gene expression level [1, 3] | hgf transcripts ([1]; MSC pretreated 24 h with 1 μM) | pdgf transcripts ([1]; MSC pretreated 24 h with 1 μM) | vegf-α transcripts ([1]; MSC pretreated 24 h with 1 μM) | angpl4 target gene expression level [1, 4] | pdk4 target gene expression level [1, 4] | Specific DNA fragmentation (MSC resistance to oxidative stress) [2, 3] | Specific DNA fragmentation (MSC resistance to oxidative stress) ([2]; MSC pretreated 24 h with 1 μM) | pdgf transcripts [1, 3] | bcl2 gene expression level ([1]; MSC pretreated 24 h with 1 μM)
1 | Cc1cc(SCc2sc(-c3ccc(C(F)(F)F)c(F)c3)nc2C)ccc1OCC(=O)O [GW0742] | did not modify | did not modify | significant increase in bcl2 gene expression level | did not modify | significantly increased the expression of pdgf | did not modify | increased expression levels | increased expression levels | did not modify the capacity of MSC to resist against oxidative stress | enhanced significantly MSC resistance | – | –
2 | COC(=O)c1sccc1S(=O)(=O)Nc1ccc(Nc2ccccc2)cc1OC [GSK0660] | A similar tendency was observed | significantly decreased | – | A similar tendency was observed | A similar tendency was observed | significantly decreased | – | – | – | impaired MSC resistance against H2O2-induced oxidative without reaching significance | A similar tendency was observed | significantly reduced bcl2 gene expression level
